What was measured:
Assay in all cases: Protein kinase inhibition assay
Assay type in all cases: biochemical
CDK6/cyclinD3(h) = CDK6/cyclinD3(h) (Homo sapiens, UniProt Q00534); settings: read-out: percent residual activity of CDK6/cyclinD3(h)
Experimental: (§1) Certain compounds were tested for activity in protein kinase inhibition assays. All substrates were dissolved and diluted to working stocks in de-ionized water, apart from histone H1 (10× working stock in 20 mM MOPS pH 7.0), PDKtide (10× working stock in 50 mM Tris pH 7.0) ATF2 (which is typically stored at a 20× working stock in 50 mM Tris pH 7.5, 150 mM NaCl, 0.1 mM EGTA, 0.03% Brij-35, 50% glycerol, 1 mM benzamidine, 0.2 mM PMSF and 0.1% R-mercaptoethanol), KKLNRTLSFAEPG (SEQ ID NO:203) and RRRLSFAEPG (SEQ ID NO:204) (50 mM HEPES pH 7.4) and GGEEEEYFELVKKKK (SEQ ID NO:205) (20 mM MOPS pH 7.0). All kinases were pre-diluted to a 10× working concentration prior to addition into the assay. The composition of the dilution buffer for each kinase is detailed below.
(§2) In a final reaction volume of 25 μl, CDK6/cyclinD3 (h) (5-10 mU) is incubated with 8 mM MOPS pH 7.0, 0.2 mM EDTA, 0.1 mg/ml histone H1, 10 mM MgAcetate and [gamma-33P-ATP] (specific activity approx. 500 cpm/pmol, concentration as required). The reaction is initiated by the addition of the MGATP mix. After incubation for 40 minutes at room temperature, the reaction is stopped by the addition of 5 μl of a 3% phosphoric acid solution. 10 μl of the reaction is then spotted onto a P30 filtermat and washed three times for 5 minutes in 75 mM phosphoric acid and once in methanol prior to drying and scintillation counting.

CHK1(h) = CHK1(h) (Homo sapiens, UniProt O14757); settings: read-out: percent residual activity of CHK1(h)
Experimental: as §1
as §2, with “CHK1” for “CDK6/cyclinD3”, “200 μM […] (SEQ ID NO:213),” for “0.1 mg/ml histone H1,”, “MgATP” for “MGATP”

CHK2(h) = CHK2(h) (Homo sapiens, UniProt O96017); settings: read-out: percent residual activity of CHK2(h)
Experimental: as §1
as §2, with “CHK2” for “CDK6/cyclinD3”, “200 μM […] (SEQ ID NO:213),” for “0.1 mg/ml histone H1,”, “MgATP” for “MGATP”

KDR(h) = KDR(h) (Homo sapiens, UniProt P35968); settings: read-out: percent residual activity of KDR(h)
Experimental: as §1
as §2, with “KDR” for “CDK6/cyclinD3”, “0.33” for “0.1”, “myelin basic protein,” for “histone H1,”, “[y-33P-ATP]” for “[gamma-33P-ATP]”, “MgATP” for “MGATP”

PAK6(h) = PAK6(h) (Homo sapiens, UniProt Q9NQU5); settings: read-out: percent residual activity of PAK6(h)
Experimental: as §1
as §2, with “PAK6” for “CDK6/cyclinD3”, “200 μM RRRLSFAEPG (SEQ ID NO:223),” for “0.1 mg/ml histone H1,”, “[y-33P-ATP]” for “[gamma-33P-ATP]”, “MgATP” for “MGATP”

PKBγ(h) = PKBγ(h) (Homo sapiens, UniProt Q9Y243); settings: read-out: percent residual activity of PKBγ(h)
Experimental: as §1
as §2, with “PKBγ” for “CDK6/cyclinD3”, “30 μM GRPRTSSFAEGKK (SEQ ID NO:232),” for “0.1 mg/ml histone H1,”, “MgATP” for “MGATP”

Chain of KDR(h) (P35968 20-1356): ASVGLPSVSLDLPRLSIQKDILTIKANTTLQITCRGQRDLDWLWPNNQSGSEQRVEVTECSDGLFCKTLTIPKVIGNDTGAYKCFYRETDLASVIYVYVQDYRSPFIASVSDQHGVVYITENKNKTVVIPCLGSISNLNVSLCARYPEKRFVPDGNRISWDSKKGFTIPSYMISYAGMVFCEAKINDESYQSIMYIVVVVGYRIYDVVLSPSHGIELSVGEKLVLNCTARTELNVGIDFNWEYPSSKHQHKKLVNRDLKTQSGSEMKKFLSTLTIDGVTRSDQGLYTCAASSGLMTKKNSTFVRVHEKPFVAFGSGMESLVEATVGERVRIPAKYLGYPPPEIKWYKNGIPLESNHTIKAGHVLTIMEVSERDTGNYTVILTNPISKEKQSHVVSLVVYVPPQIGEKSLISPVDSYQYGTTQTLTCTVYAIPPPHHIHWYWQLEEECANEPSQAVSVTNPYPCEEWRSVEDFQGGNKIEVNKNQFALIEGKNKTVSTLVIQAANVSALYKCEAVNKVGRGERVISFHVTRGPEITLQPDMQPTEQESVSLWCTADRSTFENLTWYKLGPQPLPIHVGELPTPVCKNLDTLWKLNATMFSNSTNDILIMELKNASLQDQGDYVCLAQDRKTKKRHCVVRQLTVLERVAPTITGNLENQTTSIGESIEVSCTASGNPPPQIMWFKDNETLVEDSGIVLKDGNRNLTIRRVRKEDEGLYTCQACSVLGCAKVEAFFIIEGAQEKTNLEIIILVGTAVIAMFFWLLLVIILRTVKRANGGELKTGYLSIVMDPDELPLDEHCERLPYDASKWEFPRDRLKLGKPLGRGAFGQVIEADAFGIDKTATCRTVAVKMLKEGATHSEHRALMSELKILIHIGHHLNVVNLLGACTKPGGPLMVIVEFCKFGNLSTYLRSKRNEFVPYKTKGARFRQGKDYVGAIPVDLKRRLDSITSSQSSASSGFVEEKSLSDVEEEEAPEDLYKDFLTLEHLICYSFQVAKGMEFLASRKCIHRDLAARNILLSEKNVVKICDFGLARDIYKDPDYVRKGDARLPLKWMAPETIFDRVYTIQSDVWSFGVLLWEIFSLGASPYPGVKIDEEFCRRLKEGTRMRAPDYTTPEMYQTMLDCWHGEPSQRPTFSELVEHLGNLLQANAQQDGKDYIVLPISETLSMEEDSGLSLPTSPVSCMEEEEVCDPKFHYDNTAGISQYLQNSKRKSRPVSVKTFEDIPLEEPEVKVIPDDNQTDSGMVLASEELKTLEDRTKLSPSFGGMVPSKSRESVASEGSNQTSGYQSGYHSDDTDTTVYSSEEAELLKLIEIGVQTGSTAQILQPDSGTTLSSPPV
Chain of CDK6/cyclinD3(h) (Q00534 whole entry): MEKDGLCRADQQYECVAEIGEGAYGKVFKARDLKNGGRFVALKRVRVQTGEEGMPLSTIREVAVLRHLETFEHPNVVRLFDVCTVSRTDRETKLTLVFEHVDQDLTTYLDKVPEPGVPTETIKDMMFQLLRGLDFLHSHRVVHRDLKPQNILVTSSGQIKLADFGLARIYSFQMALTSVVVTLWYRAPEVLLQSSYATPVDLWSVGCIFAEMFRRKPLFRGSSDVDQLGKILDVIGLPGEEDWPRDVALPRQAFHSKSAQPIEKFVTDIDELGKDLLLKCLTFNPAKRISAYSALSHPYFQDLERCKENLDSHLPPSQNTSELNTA
Chain of CDK6/cyclinD3(h) (P30281 whole entry partner): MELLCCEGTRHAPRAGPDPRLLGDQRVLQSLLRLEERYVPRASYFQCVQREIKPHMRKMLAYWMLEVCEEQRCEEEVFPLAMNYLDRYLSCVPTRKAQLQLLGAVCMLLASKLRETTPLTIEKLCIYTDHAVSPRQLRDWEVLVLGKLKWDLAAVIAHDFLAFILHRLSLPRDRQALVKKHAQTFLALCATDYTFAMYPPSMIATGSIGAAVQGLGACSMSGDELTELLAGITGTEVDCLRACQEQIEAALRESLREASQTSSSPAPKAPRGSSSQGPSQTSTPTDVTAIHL
Chain of PKBγ(h) (Q9Y243 whole entry): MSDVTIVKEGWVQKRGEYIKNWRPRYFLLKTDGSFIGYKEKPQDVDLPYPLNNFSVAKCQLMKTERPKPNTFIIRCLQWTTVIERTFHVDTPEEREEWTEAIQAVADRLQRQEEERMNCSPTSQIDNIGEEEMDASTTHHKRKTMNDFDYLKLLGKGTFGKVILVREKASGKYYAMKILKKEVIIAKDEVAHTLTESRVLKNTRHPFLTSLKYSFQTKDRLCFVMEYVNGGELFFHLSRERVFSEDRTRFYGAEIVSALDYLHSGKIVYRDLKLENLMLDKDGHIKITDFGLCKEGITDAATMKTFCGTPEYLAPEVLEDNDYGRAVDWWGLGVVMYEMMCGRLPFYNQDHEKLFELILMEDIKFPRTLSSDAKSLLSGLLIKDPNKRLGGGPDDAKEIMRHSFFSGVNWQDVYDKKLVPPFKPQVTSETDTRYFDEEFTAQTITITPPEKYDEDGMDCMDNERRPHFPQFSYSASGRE
Chain of CHK2(h) (O96017 whole entry): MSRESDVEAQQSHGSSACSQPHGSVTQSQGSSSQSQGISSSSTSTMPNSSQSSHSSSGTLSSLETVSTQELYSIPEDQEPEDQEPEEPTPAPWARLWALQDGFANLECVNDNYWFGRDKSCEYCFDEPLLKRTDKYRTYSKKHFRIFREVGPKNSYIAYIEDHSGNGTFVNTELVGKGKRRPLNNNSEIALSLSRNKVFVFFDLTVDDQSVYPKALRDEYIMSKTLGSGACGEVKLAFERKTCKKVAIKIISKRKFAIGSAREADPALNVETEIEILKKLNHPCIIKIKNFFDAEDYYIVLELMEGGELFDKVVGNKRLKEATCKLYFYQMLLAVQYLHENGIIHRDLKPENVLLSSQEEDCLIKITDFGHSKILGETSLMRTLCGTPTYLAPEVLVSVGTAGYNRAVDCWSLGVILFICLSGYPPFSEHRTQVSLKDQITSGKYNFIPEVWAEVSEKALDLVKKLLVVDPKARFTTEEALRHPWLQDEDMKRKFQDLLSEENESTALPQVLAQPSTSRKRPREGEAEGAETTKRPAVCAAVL
Chain of PAK6(h) (Q9NQU5 whole entry): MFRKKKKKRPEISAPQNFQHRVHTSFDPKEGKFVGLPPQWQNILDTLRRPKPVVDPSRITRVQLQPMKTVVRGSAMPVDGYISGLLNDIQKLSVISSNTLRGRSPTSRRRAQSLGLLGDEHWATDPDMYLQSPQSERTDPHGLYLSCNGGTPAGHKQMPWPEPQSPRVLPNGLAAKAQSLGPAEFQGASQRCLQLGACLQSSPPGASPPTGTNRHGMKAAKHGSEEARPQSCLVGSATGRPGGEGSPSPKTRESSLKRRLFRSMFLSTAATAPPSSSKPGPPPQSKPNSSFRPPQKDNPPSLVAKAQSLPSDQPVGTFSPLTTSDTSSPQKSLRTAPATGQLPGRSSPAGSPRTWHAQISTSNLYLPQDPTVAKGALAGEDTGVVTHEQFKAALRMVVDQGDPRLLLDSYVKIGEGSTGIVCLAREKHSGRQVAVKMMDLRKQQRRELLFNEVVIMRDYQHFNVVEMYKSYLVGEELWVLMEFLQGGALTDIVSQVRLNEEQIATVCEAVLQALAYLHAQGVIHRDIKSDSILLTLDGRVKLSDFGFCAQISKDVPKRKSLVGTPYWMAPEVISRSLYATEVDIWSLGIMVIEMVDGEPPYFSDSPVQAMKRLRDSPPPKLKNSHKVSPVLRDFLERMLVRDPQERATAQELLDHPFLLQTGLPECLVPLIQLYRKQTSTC
Chain of CHK1(h) (O14757 whole entry): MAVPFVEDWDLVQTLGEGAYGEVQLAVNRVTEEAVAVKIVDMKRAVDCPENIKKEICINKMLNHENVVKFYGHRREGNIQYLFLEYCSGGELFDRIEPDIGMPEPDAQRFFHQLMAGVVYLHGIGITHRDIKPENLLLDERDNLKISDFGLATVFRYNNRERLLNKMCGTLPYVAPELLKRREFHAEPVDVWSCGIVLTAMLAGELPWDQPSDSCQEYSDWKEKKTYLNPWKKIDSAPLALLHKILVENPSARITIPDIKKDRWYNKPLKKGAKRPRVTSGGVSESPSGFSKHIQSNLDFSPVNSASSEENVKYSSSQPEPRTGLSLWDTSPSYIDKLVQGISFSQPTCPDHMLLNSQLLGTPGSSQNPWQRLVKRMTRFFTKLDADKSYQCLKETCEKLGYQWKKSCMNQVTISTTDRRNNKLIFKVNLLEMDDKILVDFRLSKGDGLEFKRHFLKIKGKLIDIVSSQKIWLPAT

SMILES | remaining activity at 2.5 µM (CDK6/cyclinD3(h)) | remaining activity at 2.5 µM (CHK1(h)) | remaining activity at 2.5 µM (CHK2(h)) | remaining activity at 2.5 µM (KDR(h)) | remaining activity at 2.5 µM (PAK6(h)) | remaining activity at 2.5 µM (PKBγ(h))
CN1CCCC1CCNC(=O)c1cn2c3c(c(N4CCC(c5cnccn5)C4)c(F)cc3c1=O)Oc1cc3ccccc3cc1-2 (stereo not drawn) [Compound A-1] | 85% | 95% | 62% | 90% | 123% | 64%
CC(=O)N1CCN(c2ccc3c(=O)c(C(=O)NCCN4CCCC4)c4n(C)c5ccccc5n4c3n2)CC1 [Compound B-1] | 100% | 106% | 99% | 95% | 112% | 95%
